Experimental data taken from US20080069899A1, “Pharmaceutical Compositions Comprising Beta-Carboline Derivatives and Use Thereof for the Treatment of Cancer” (priority 2004, published 2008).
Values joined by “and” are separate entries in the source; they are usually repeats but may differ in a detail not shown here. Equal entries are not always repeated. Where two headings read alike, the source gives them in different places.

Key:
[1] = test system: HT29 human colon tumor cells; experiment: in vivo antineoplastic activity, NOD-SCID mice xenografted with HT29 human tumour cells
Method: (§1) The animal model chosen is that of severe combined immunodeficient (NOD-SCID) mice having received a xenograft of human tumor cells.
(§2) Male and female NOD-SCID mice, more than 3 months old, were raised in an environment of strict sterility, in an insulator ventilated with filtered air and sterilized, at 22° C. and 40% humidity, with a day-12 h/night-12 h cycle. The cages, feeding bottles and the water were sterilized in an autoclave at 120° C. for 30 minutes and the food as well as the bedding were treated with γ-irradiation. All handling took place in aseptic conditions under a laminar flow hood.
The mice were subjected to general anaesthesia by i.p. injection of 0.3 to 0.4 ml of hypnomidate at 2 mg/ml. 1×10^7 HT29 human colon tumor cells in suspension in 200 μl of PBS were then injected sub-cutaneously, into the backs of the mice. […]
50 mg of 5-fluorouracil (Sigma) were dissolved in 8 ml of water and the solution obtained was sterilized by filtration on a membrane with 0.22 μm porosity. […]

HT29 (colon) = experiment: in vitro cytotoxicity test (neutral red, 96-well microplate); type: cell-based; details: Homo sapiens, HT-29, 96 h, incubation 4 days
Method: (§3) The cytotoxic effects of the different alkaloid extracts of P. harmala were studied on several cell lines: • human leukemia cell lines: K562 and Jurkat (leukemia), U937 (myeloma), • human solid tumor cell lines: KB (epithelioma of the nasopharynx) and HT29 (colon), • immortalized human bone marrow endothelial cell lines: HBMEC.
(§4) The cells are cultured in an oven under a 5% CO2 atmosphere and at 37° C., in RPMI 1640 medium for K562, Jurkat, U937 and HT29 and DMEM for KB, supplemented with 10% foetal calf serum, 0.01% penicillin-streptomycin and L-glutamine 2 mM and in EGM2 medium for the HBMEC cells.
(§5) The cytotoxicity test is carried out in a 96-well microplate in the presence of the extract to be tested at varying concentrations of 40, 20, 10, 5, 1, 0.5 μg/ml and in the absence of product, after incubation for 4 days at 37° C. On the 3rd day, a solution of neutral red is added which is absorbed by living cells. The optical density (OD) of dye released by lyzed cells is measured at 540 nm by an Elisa plate reader. The toxicity (% inhibition of growth) is inversely proportional to the optical density.
(§6) The percentage of inhibition is defined as being the difference between the OD without product and the OD in the presence of product compared to the OD without product.
(§7) The concentration inhibiting 50% of cell growth is obtained from the curve representing the percentage of inhibition as a function of the logarithm of the concentration.

[2] = test system: KB (epithelioma of the nasopharynx); experiment: as above; type: cell-based; details: Homo sapiens, 96 h, incubation 4 days
Method: as §3, §4, §5, §6, §7

[3] = test system: HBMEC (immortalized human bone marrow endothelial cell lines); experiment: as above; type: cell-based; details: 96 h, incubation 4 days
Method: as §3, §4, §5, §6, §7

U937 (myeloma) = experiment: as above; type: cell-based; details: Homo sapiens, U-937, 96 h, incubation 4 days
Method: as §3, §4, §5, §6, §7

Jurkat (leukemia) = experiment: as above; type: cell-based; details: Homo sapiens, 96 h, incubation 4 days
Method: as §3, §4, §5, §6, §7

K562 (leukemia) = experiment: as above; type: cell-based; details: Homo sapiens, 96 h, incubation 4 days
Method: as §3, §4, §5, §6, §7

[4] = Method: as §1, §2
150 mg of cyclophosphamide (Sigma) were dissolved in 8 ml of water and the solution obtained was sterilized by filtration on a membrane with 0.22 μm porosity.
50 mg of 5-fluorouracil (Sigma) were dissolved in 8 ml of water and the solution obtained was sterilized by filtration on a membrane with 0.22 μm porosity.
100 mg of dihydrated harmalacidine hydrochloride were dissolved in 8 ml of water and the solution obtained was sterilized by filtration on a membrane with 0.22 μm porosity. The mice received either 25, 50, or 100 mg/kg/day of harmalacidine alone, or a mixture of 25 or 50 mg/kg/day of harmalacidine+50 mg/kg/day of cyclophosphamide.

[5] = test system: HT29 human colon tumor cells; experiment: in vivo antineoplastic activity, NOD-SCID mice xenografted with HT29 human tumour cells; remark: listed apart in the source
[6] = test system: malignant and endothelial cells tested; experiment: summary of in vitro cytotoxicity over all lines tested; type: cell-based, human; details: Homo sapiens, Endothelial cell, range over the cell lines; read-out: IC50 vis-à-vis malignant and endothelial cells tested
Method: as §3, §4, §5, §6, §7
To summarize, the IC50 vis-à-vis malignant and endothelial cells tested is the following: […]

murine tumorous cells = details: cited from earlier work

Which results are given for COc1ccc2c3c([nH]c2c1)C(=O)NCC3 [Harmalacidine (C), harmalacidine]?
Average volume of the tumours of the treated mice compared to the average volume of the tumours of the non-treated mice (T/C) (%) ([1]; harmalacidine 25 mg/kg/day alone per os, Day 15): 81%; Average volume of the tumours of the treated mice compared to the average volume of the tumours of the non-treated mice (T/C) (%) ([1]; harmalacidine 25 mg/kg/day alone per os, Day 30): 72%; Average volume of the tumours of the treated mice compared to the average volume of the tumours of the non-treated mice (T/C) (%) ([1]; harmalacidine 25 mg/kg/day alone per os, Day 40): 70%; Average volume of the tumours of the treated mice compared to the average volume of the tumours of the non-treated mice (T/C) (%) ([1]; harmalacidine 25 mg/kg/day alone per os, Day 50): 65%; Average volume of the tumours of the treated mice compared to the average volume of the tumours of the non-treated mice (T/C) (%) ([1]; harmalacidine 25 mg/kg/day alone per os, Day 60): 77%; Average volume of the tumours of the treated mice compared to the average volume of the tumours of the non-treated mice (T/C) (%) ([1]; harmalacidine 50 mg/kg/day alone per os, Day 15): 42%; Average volume of the tumours of the treated mice compared to the average volume of the tumours of the non-treated mice (T/C) (%) ([1]; harmalacidine 50 mg/kg/day alone per os, Day 30): 56%; Average volume of the tumours of the treated mice compared to the average volume of the tumours of the non-treated mice (T/C) (%) ([1]; harmalacidine 50 mg/kg/day alone per os, Day 40): 48%; Average volume of the tumours of the treated mice compared to the average volume of the tumours of the non-treated mice (T/C) (%) ([1]; harmalacidine 50 mg/kg/day alone per os, Day 50): 45%; Average volume of the tumours of the treated mice compared to the average volume of the tumours of the non-treated mice (T/C) (%) ([1]; harmalacidine 50 mg/kg/day alone per os, Day 60): 57%; IC50 (HT29 (colon)): 10.5 µg/mL and 34.4 µM; IC50 [2]: 12 µg/mL and 55.5 µM; IC50 [3]: 28 µg/mL and 130 µM; IC50 (U937 (myeloma)): 29 µg/mL and 134 µM; IC50 (Jurkat (leukemia)): 15.5 µg/mL and 71.7 µM; IC50 (K562 (leukemia)): 12.5 µg/mL and 57.8 µM; state of the mice (printed in the T/C column) ([4]; harmalacidine 100 mg/kg/day alone, Day 15): dead; tolerance of the dose ([4]; harmalacidine 100 mg/kg/day, for more than 10 days): not tolerated

Which “Average volume of the tumours of the treated mice compared to the average volume of the tumours of the non-treated mice (T/C) (%)” value ([5]; harmine 100 mg/kg/day per os, Day 40) does the source give for COc1ccc2c(c1)[nH]c1c(C)nccc12 [Harmine (A), harmine] here?
Its value is 77%.

And the “Average volume of the tumours of the treated mice compared to the average volume of the tumours of the non-treated mice (T/C) (%)” value ([5]; harmine 125 mg/kg/day per os, Day 30)?
The value was 55%.

And the “Average volume of the tumours of the treated mice compared to the average volume of the tumours of the non-treated mice (T/C) (%)” value ([5]; harmine 175 mg/kg/day per os, Day 40)?
The value was 10%.

What about the “Average volume of the tumours of the treated mice compared to the average volume of the tumours of the non-treated mice (T/C) (%)” value ([5]; harmine 175 mg/kg/day per os, Day 50) of the same compound?
The value was 30%.

And the “inhibitory action on the growth of the tumors” value ([1]; harmine 100 mg/kg/day per os)?
Its value is “very weak effect”.

And the “Average volume of the tumours of the treated mice compared to the average volume of the tumours of the non-treated mice (T/C) (%)” value ([1]; harmine 100 mg/kg/day per os, Day 30)?
Its value is 74%.

What about the “Average volume of the tumours of the treated mice compared to the average volume of the tumours of the non-treated mice (T/C) (%)” value ([1]; harmine 100 mg/kg/day per os, Day 50) of the same compound?
The value was 84%.

What about the “Average volume of the tumours of the treated mice compared to the average volume of the tumours of the non-treated mice (T/C) (%)” value ([1]; harmine 100 mg/kg/day per os, Day 60) of the same compound?
The value was 105%.

What about the “Average volume of the tumours of the treated mice compared to the average volume of the tumours of the non-treated mice (T/C) (%)” value ([1]; harmine 125 mg/kg/day per os, Day 40) of the same compound?
Its value is 58%.

And the “Average volume of the tumours of the treated mice compared to the average volume of the tumours of the non-treated mice (T/C) (%)” value ([1]; harmine 125 mg/kg/day per os, Day 50)?
Its value is 54%.

What about the “Average volume of the tumours of the treated mice compared to the average volume of the tumours of the non-treated mice (T/C) (%)” value ([1]; harmine 125 mg/kg/day per os, Day 60) of the same compound?
Its value is 67%.

What about the “Average volume of the tumours of the treated mice compared to the average volume of the tumours of the non-treated mice (T/C) (%)” value ([1]; harmine 150 mg/kg/day per os, Day 30) of the same compound?
Its value is 41%.

And the “Average volume of the tumours of the treated mice compared to the average volume of the tumours of the non-treated mice (T/C) (%)” value ([1]; harmine 150 mg/kg/day per os, Day 40)?
Its value is 46%.

And the “Average volume of the tumours of the treated mice compared to the average volume of the tumours of the non-treated mice (T/C) (%)” value ([1]; harmine 150 mg/kg/day per os, Day 50)?
The value was 42%.

What about the “Average volume of the tumours of the treated mice compared to the average volume of the tumours of the non-treated mice (T/C) (%)” value ([1]; harmine 150 mg/kg/day per os, Day 60) of the same compound?
Its value is 51%.

And the “Average volume of the tumours of the treated mice compared to the average volume of the tumours of the non-treated mice (T/C) (%)” value ([1]; harmine 175 mg/kg/day per os, Day 30)?
Its value is 40%.

And the “Average volume of the tumours of the treated mice compared to the average volume of the tumours of the non-treated mice (T/C) (%)” value ([1]; harmine 175 mg/kg/day per os, Day 60)?
The value was 40%.

What about the T/C ([1]; harmine 175 mg/kg/day per os, for the entire duration of treatment) of the same compound?
The T/C was 40%.

What about the IC50 [6] of the same compound?
Its IC50 is 2.9 µg/mL to 4.6 µg/mL and 14 µM to 22 µM.

What about the IC50 (HT29 (colon)) of the same compound?
Its IC50 is 2.9 µg/mL and 13.7 µM.

What about the IC50 [2] of the same compound?
The IC50 was 4.6 µg/mL and 21.7 µM.

What about the IC50 [3] of the same compound?
The IC50 was 3.5 µg/mL and 16.5 µM.

What about the IC50 (U937 (myeloma)) of the same compound?
Its IC50 is 16.5 µM.

And the IC50 (Jurkat (leukemia))?
The IC50 was 3.2 µg/mL and 15.1 µM.

What about the “tolerance of the dose” value ([4]; harmine 200 mg/kg/day per os, the mice died after a few days of treatment) of the same compound?
The value was “not tolerated”.

Which “concentration inhibiting 50% of cell growth (IC50)” value (murine tumorous cells) does the source give for Peganine [Peganine (B)] here?
Its value is “inactive”.
